Reference: publication PMC6881171, “A conserved ATP- and Scc2/4-dependent activity for cohesin in tethering DNA molecules” (Science Advances, 2019)

Biological target: T1, budding yeast cohesin tetramer (Smc1, Smc3, Scc1/Mcd1, Scc3) with Scc2-Scc4 loader complex (Saccharomyces cerevisiae, UniProt P32908+P47037)
T1 construct: tetramer overexpressed in S. cerevisiae W303-1a; Smc1-3xStrepII, Mcd1-8xHis-3xHA; loader Scc2-3xmyc-3xStrepII with Scc4; tags kept; with Sister chromatid cohesion protein 1; Cohesin subunit SCC3; Sister chromatid cohesion protein 2; MAU2 chromatid cohesion factor homolog
Assay: [gamma-32P]ATP hydrolysis, thin-layer chromatography
Assay type: biochemical
Details: 30 nM cohesin, 60 nM Scc2/4, 0.2 nM lambda-DNA, 400 uM ATP, 0.5 mM MgCl2, 20 mM NaCl, pH 7.0, 29 C; labelled compound

## Nc1ncnc2c1ncn2[C@@H]1O[C@H](COP(=O)(O)OP(=O)(O)OP(=O)(O)O)[C@@H](O)[C@H]1O [ATP]
  [gamma-32P]ATP hydrolysis, thin-layer chromatography: our purified Scc2-Scc4 complex was able to stimulate cohesin ATPase activity
